The source of these data is patent publication US7049094B2, “Methods for identifying modulators of N-type ion channel inactivation” (Wyeth, priority 1999, dated 2006).

One test deals with T1, hKv1.4 channels (Homo sapiens, UniProt P22459).
T1 construct: expressed in transfected cells; host or cells: CHO cells
Description: Elimination of N-type inactivation of hKv1.4 channels (CHO cells). The format is cell-based. Conditions: glutathione keeps channels in reduced (inactivating) state. How it is done: Compounds active in the yeast assay were examined for their ability to disrupt N-type Kv channel inactivation in CHO cells transfected with hKv1.1 alone, hKv1.1 plus hKvβ1, or hKv1.4, and in Xenopus oocytes injected with the corresponding mRNA's. […] This “disinactivating” effect was potent and dose dependent, with an IC50 ranging from 0.3 μM to […] in CHO cells and a 3–5 fold higher IC50 of 0.9 μM in oocytes. […] In addition to the disinactivating effect of these compounds, a parallel dose-dependent increase in peak current occurred simultaneously with the loss of inactivation. This increase in peak current is probably at least partially due to the removal of inactivation, which uncovers the “true” peak current of the channels in the cell, although other mechanisms such as a stabilization of the open state of the channel may also be occurring. […] At 100 μM, however, Compound “A” blocked approximately 37% of the hKv1.1 current in CHO cells, thus high concentrations of some of these compounds are able to block Kv1.1 channels.
The mechanism of action of these Kv channel modulators (referred to herein as “disinactivators”) was further explored first by altering the voltage protocol so that single voltage steps to 50 mV were applied once every 20 sec (FIG. 8). […]

In the next test the test system is PTZ-induced seizures. Description: Protection against pentylenetetrazol-induced seizures. The format is in vivo. Conditions: Mus musculus; mice, I.P., 30 min before PTZ 85 mg/kg s.c.; read-out: estimated ED50, protection against PTZ-induced seizures. How it is done:
FIG. 8. Protection against pentelenetetrazol-induced seizures in the mouse. Adult male mice were treated with valproic acid (FIG. 8a), Compound A (FIG. 8b), and Compound B (FIG. 8c) at doses from 30–178 mg/kg i.p. (n=8/dose). Thirty minutes later, these animals were challenged with pentelenetetrazol (85 mg/kg, SC) and observed for onset of seizures during a 30 minute test period. The number of animals protected from seizures was plotted versus dose of test compound and ED50s were estimated from this dose-response data.
The activities of Kv channel modulators were examined in several in vitro and in vivo seizure models. Field potential recordings were performed in the CA1 region of rat hippocampal slices treated with 10 μM bicuculline to induce multiple population spikes (Albus, H. and R. Williamson, Epilepsia (1998) 39(2):124–139). […] To test this hypothesis directly, the disinactivators were examined for their ability to protect mice from pentylenetetrazol-induced seizures. Mice were pretreated with Compound “D” or Compound “E” (30–300 mg/kg i.p.), valproic acid (156 mg/kg i.p.) or saline. Thirty minutes later, pentylenetetrazol (PTZ; 85 mg/kg, s.c.) was administered and the mice were monitored for development of spontaneous, recurrent seizures (a seizure was defined as loss of righting reflex; see Frey, H.-H. and I. Bartels, Epilepsy Res. (1997) 27:151–164). […]

SMILES strings stand for the structures.

T1 sequence (P22459 whole entry): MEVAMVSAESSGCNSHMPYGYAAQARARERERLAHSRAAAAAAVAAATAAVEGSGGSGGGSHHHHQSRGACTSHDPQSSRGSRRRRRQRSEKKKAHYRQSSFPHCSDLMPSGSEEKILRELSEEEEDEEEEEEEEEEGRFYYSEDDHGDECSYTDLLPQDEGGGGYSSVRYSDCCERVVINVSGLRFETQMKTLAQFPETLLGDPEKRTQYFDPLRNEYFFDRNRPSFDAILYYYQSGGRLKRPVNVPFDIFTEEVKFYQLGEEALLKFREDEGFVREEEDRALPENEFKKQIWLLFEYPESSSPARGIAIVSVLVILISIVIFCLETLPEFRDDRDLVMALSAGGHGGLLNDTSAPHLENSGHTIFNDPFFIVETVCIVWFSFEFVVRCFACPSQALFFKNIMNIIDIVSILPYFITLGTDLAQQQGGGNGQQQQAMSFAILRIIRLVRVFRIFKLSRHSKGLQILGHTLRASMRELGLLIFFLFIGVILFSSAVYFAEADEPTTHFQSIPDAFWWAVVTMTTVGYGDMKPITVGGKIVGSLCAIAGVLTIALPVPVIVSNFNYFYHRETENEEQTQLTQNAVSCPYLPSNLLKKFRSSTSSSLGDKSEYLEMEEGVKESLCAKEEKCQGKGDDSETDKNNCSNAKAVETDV

For the molecule `OO` [Compound H2O2, H2O2], the “disinactivation of hKv1.4 with glutathione applied” value at hKv1.4 channels is on record as “Glutathione was able to block the disinactivation”.

Regarding `CCCC(CCC)C(=O)O` [valproic acid], in the test on PTZ-induced seizures, the ED50 (commonly the midpoint of the dose-response relation) was 141 mg/kg.
